Calls of active or inactive are those of the source. The rule behind the calls is not given here.
Tested on: CCRIS mutagenicity, Ames/micronucleus/aberration tests
Assay: CCRIS mutagenicity studies

Measured: mutagenic call

Clc1nc2ccccc2nc1Cl
active: Test System: MOUSE LYMPHOMA, Strain/Indicator: L5178Y (TK+/TK-), Metabolic Activation: NONE, Method: SUSPENSION/PLATE active; positive. reevaluation of results: equivocal | Test System: MOUSE LYMPHOMA, Strain/Indicator: L5178Y (TK+/TK-), Metabolic Activation: RAT, LIVER, S-9, AROCLOR 1254, Method: SUSPENSION/PLATE active; positive. reevaluation of results: positive
inactive: Test System: AMES SALMONELLA TYPHIMURIUM, Strain/Indicator: TA98, Metabolic Activation: HAMSTER, LIVER, S-9, AROCLOR 1254 (10%), Method: PREINCUBATION inactive; negative | Test System: AMES SALMONELLA TYPHIMURIUM, Strain/Indicator: TA98, Metabolic Activation: HAMSTER, LIVER, S-9, AROCLOR 1254, Method: STANDARD PLATE inactive; negative | Test System: AMES SALMONELLA TYPHIMURIUM, Strain/Indicator: TA98, Metabolic Activation: NONE, Method: PREINCUBATION inactive; negative | Test System: AMES SALMONELLA TYPHIMURIUM, Strain/Indicator: TA98, Metabolic Activation: NONE, Method: STANDARD PLATE inactive; negative | Test System: AMES SALMONELLA TYPHIMURIUM, Strain/Indicator: TA98, Metabolic Activation: RAT, LIVER, S-9, AROCLOR 1254 (10%), Method: PREINCUBATION inactive; negative | Test System: AMES SALMONELLA TYPHIMURIUM, Strain/Indicator: TA98, Metabolic Activation: RAT, LIVER, S-9, AROCLOR 1254, Method: STANDARD PLATE inactive; negative | Test System: AMES SALMONELLA TYPHIMURIUM, Strain/Indicator: TA100, Metabolic Activation: HAMSTER, LIVER, S-9, AROCLOR 1254 (10%), Method: PREINCUBATION inactive; negative | Test System: AMES SALMONELLA TYPHIMURIUM, Strain/Indicator: TA100, Metabolic Activation: HAMSTER, LIVER, S-9, AROCLOR 1254, Method: STANDARD PLATE inactive; negative | Test System: AMES SALMONELLA TYPHIMURIUM, Strain/Indicator: TA100, Metabolic Activation: NONE, Method: PREINCUBATION inactive; negative | Test System: AMES SALMONELLA TYPHIMURIUM, Strain/Indicator: TA100, Metabolic Activation: NONE, Method: STANDARD PLATE inactive; negative | Test System: AMES SALMONELLA TYPHIMURIUM, Strain/Indicator: TA100, Metabolic Activation: RAT, LIVER, S-9, AROCLOR 1254 (10%), Method: PREINCUBATION inactive; negative | Test System: AMES SALMONELLA TYPHIMURIUM, Strain/Indicator: TA100, Metabolic Activation: RAT, LIVER, S-9, AROCLOR 1254, Method: STANDARD PLATE inactive; negative | Test System: AMES SALMONELLA TYPHIMURIUM, Strain/Indicator: TA1535, Metabolic Activation: HAMSTER, LIVER, S-9, AROCLOR 1254 (10%), Method: PREINCUBATION inactive; negative | Test System: AMES SALMONELLA TYPHIMURIUM, Strain/Indicator: TA1535, Metabolic Activation: HAMSTER, LIVER, S-9, AROCLOR 1254, Method: STANDARD PLATE inactive; negative | Test System: AMES SALMONELLA TYPHIMURIUM, Strain/Indicator: TA1535, Metabolic Activation: NONE, Method: PREINCUBATION inactive; negative | Test System: AMES SALMONELLA TYPHIMURIUM, Strain/Indicator: TA1535, Metabolic Activation: NONE, Method: STANDARD PLATE inactive; negative | Test System: AMES SALMONELLA TYPHIMURIUM, Strain/Indicator: TA1535, Metabolic Activation: RAT, LIVER, S-9, AROCLOR 1254 (10%), Method: PREINCUBATION inactive; negative | Test System: AMES SALMONELLA TYPHIMURIUM, Strain/Indicator: TA1535, Metabolic Activation: RAT, LIVER, S-9, AROCLOR 1254, Method: STANDARD PLATE inactive; negative | Test System: AMES SALMONELLA TYPHIMURIUM, Strain/Indicator: TA1537, Metabolic Activation: HAMSTER, LIVER, S-9, AROCLOR 1254 (10%), Method: PREINCUBATION inactive; negative | Test System: AMES SALMONELLA TYPHIMURIUM, Strain/Indicator: TA1537, Metabolic Activation: HAMSTER, LIVER, S-9, AROCLOR 1254, Method: STANDARD PLATE inactive; negative | Test System: AMES SALMONELLA TYPHIMURIUM, Strain/Indicator: TA1537, Metabolic Activation: NONE, Method: PREINCUBATION inactive; negative | Test System: AMES SALMONELLA TYPHIMURIUM, Strain/Indicator: TA1537, Metabolic Activation: NONE, Method: STANDARD PLATE inactive; negative | Test System: AMES SALMONELLA TYPHIMURIUM, Strain/Indicator: TA1537, Metabolic Activation: RAT, LIVER, S-9, AROCLOR 1254 (10%), Method: PREINCUBATION inactive; negative | Test System: AMES SALMONELLA TYPHIMURIUM, Strain/Indicator: TA1537, Metabolic Activation: RAT, LIVER, S-9, AROCLOR 1254, Method: STANDARD PLATE inactive; negative | Test System: AMES SALMONELLA TYPHIMURIUM, Strain/Indicator: TA1538, Metabolic Activation: HAMSTER, LIVER, S-9, AROCLOR 1254, Method: STANDARD PLATE inactive; negative | Test System: AMES SALMONELLA TYPHIMURIUM, Strain/Indicator: TA1538, Metabolic Activation: NONE, Method: STANDARD PLATE inactive; negative | Test System: AMES SALMONELLA TYPHIMURIUM, Strain/Indicator: TA1538, Metabolic Activation: RAT, LIVER, S-9, AROCLOR 1254, Method: STANDARD PLATE inactive; negative
